Like-named read-outs stand apart in the source and are kept apart here.
Columns and labels:
[1] = biological target: T1, Recombinant GST-TAG-MASTL (Homo sapiens, UniProt Q96GX5); test: HTRF-based kinase assay (HTRF KinEASE assay kit); assay type: biochemical; details: for activity at 1 µM: read-out: MASTL activity (%) HTRF (1 µM); for IC50: HTRF, read-out: IC50(nM) MASTL activity
T1 construct: GST; purchased Thermo Fisher Scientific
T1 sequence (Q96GX5 1-879): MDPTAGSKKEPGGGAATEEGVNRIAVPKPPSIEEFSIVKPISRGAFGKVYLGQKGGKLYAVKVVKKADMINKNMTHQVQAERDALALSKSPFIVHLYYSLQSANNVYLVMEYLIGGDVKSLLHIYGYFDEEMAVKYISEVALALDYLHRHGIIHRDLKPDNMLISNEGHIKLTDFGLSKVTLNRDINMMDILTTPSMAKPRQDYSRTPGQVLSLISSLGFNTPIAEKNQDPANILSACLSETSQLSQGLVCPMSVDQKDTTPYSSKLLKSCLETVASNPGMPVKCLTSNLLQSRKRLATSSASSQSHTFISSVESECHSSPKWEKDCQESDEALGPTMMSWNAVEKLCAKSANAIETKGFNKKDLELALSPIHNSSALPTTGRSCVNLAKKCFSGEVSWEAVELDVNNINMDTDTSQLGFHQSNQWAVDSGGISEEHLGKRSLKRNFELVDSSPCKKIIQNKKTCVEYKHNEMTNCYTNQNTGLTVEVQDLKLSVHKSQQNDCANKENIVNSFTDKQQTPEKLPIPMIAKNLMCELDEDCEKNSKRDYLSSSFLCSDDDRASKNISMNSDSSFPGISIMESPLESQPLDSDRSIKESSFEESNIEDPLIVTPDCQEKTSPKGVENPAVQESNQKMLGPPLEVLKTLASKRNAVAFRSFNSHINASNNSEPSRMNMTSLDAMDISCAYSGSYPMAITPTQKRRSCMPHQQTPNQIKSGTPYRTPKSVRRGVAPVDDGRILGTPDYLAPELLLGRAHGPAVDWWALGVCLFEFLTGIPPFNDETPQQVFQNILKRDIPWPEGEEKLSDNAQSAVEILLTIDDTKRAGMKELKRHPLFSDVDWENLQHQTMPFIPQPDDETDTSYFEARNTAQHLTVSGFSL
Excerpt: Recombinant GST-TAG-MASTL (Thermo Fisher Scientific, MA, USA) was used for HTRF-based kinase assays. The HTRF KinEASE assay kit (CisBio, MA, USA) was used according to the manufacturer's instructions.

[2] = in vitro; details: human, mcf10a cells
Procedure: (§1) MCF7 breast cancer cell lines and MCF10A normal breast cancer cell lines were treated with serial dilutions of the compounds of the present invention ranging from 1 µM to 15.63 nM for 72 hours. Cell viability was measured by the WST-8 assay (Cyto XTM cell viability assay kit; LPS solution, Daejeon, Korea) according to the manufacturer's instructions.

[3] = system: pENSA; test: pENSA level by immunofluorescence (described method: in vitro kinase analysis with GST-tag-MASTL and His-tag-ENSA); assay type: cell-based; details: for pENSA (%) Immunofluor ecense (1 µM): compound 1 µM
Method in brief: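 In vitro kinase reaction using recombinant GST-tagged MASTL with His-tagged ENSA as substrate; phosphorylated ENSA (pENSA) serves as read-out of MASTL activity. Cell lines named: MCF7 breast cancer and MCF10A.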

[4] = system: MCF7 breast cancer cell lines; test: Cell viability analysis, WST-8 assay, MCF7; details: Homo sapiens, MCF7, 72 h; for viability at 1 µM: read-out: Cell viability (%) WST-8, MCF7 (1 µM), compound 1 µM, 72 hours
Procedure: as §1

## CCc1ccccc1C1=CCN(c2nc(Nc3cc(C4CC4)[nH]n3)c3ccccc3n2)CC1 [compound 6m, M-(5-cyclopropyl-1G-pyrazol-3-yl)-2-(4-(2-ethylphenyl)-3,6-dihydropyridin-1(2G)-yl)quinazolin-4-amine]
[1]; compound 1 µM
  activity at 1 µM: 51.8%
[2]
  viability at 1 µM: 115%
[3]
  pENSA (%) Immunofluor ecense (1 µM): 97.1%
[4]
  viability at 1 µM: 65.7%

## CC(C)(C)OC(=O)N1CC=C(c2nc(Nc3cc(C4CC4)[nH]n3)c3ccccc3n2)CC1 [compound 7, sdqs-butyl 4-(4-((5-cyclopropyl-1G-pyrazol-3-yl)amino)quinazolin-2-yl)-3,6-dihydropyridine-1(2G)-carboxylate]
[1]
  IC50: 315 nM
[1]; compound 1 µM
  activity at 1 µM: 31%
[2]
  viability at 1 µM: 54.9%
[3]
  pENSA (%) Immunofluor ecense (1 µM): 68.2%
[4]
  viability at 1 µM: 84.2%

## C1=C(c2nc(Nc3cc(C4CC4)[nH]n3)c3ccccc3n2)CCNC1 [compound 8, M-(5-cyclopropyl-1G-pyrazol-3-yl)-2-(1,2,3,6-tetrahydropyridin-4-yl)quinazolin-4-amine trifluoroacetic acid]
[1]
  activity at 1 µM: 57.2%
[2]
  viability at 1 µM: 80.8%
[3]
  pENSA (%) Immunofluor ecense (1 µM): 53%
[4]
  viability at 1 µM: 64.3%

## O=C(c1ccccc1)N1CC=C(c2nc(Nc3cc(C4CC4)[nH]n3)c3ccccc3n2)CC1 [compound 9a, (4-(4-((5-cyclopropyl-1G-pyrazol-3-yl)amino)quinazolin-2-yl)-3,6-dihydropyridin-1(2G)-yl)(phenyl)methanone]
[1]
  IC50: 203 nM
[1]; compound 1 µM
  activity at 1 µM: 45.5%
[2]
  viability at 1 µM: 49.7%
[3]
  pENSA (%) Immunofluor ecense (1 µM): 50.5%
[4]
  viability at 1 µM: 63.8%

## CC(C)(C)OC(=O)N1CCN(c2nc(Nc3cc(C4CC4)[nH]n3)c3ccccc3n2)CC1 [compound 10, sdqs-butyl 4-(4-((5-cyclopropyl-1G-pyrazol-3-yl)amino)quinazolin-2-yl)piperazine-1-carboxylate]
[1]
  IC50: 569 nM
[1]; compound 1 µM
  activity at 1 µM: 24.1%
[2]
  viability at 1 µM: 60.7%
[3]
  pENSA (%) Immunofluor ecense (1 µM): 50.3%
[4]
  viability at 1 µM: 61.4%

## O=C(Nc1ccccc1)N1CC2CC1CN2c1nc(Nc2cc(C3CC3)[nH]n2)c2ccccc2n1 (stereo not drawn) [compound 15c, 5-(4-((5-cyclopropyl-1G-pyrazol-3-yl)amino)quinazolin-2-yl)-M-phenyl-2,5-diazabicyclo[2.2.1]heptane-2-carboxamide]
[1]
  IC50: 265 nM
[1]; compound 1 µM
  activity at 1 µM: 41.2%
[2]
  viability at 1 µM: 40%
[3]
  pENSA (%) Immunofluor ecense (1 µM): 11.3%
[3]; read-out: IC50(nM) pENSA
  IC50: 576 nM
[4]
  viability at 1 µM: 93%

## CC(C)C(=O)N1CC2CC1CN2c1nc(Nc2cc(C3CC3)[nH]n2)c2ccccc2n1 (stereo not drawn) [compound 15d, 1-(5-(4-((5-cyclopropyl-1G-pyrazol-3-yl)amino)quinazolin-2-yl)-2,5-diazabicyclo[2.2.1]heptan-2-yl)-2-methylpropan-1-one]
[1]; compound 1 µM
  activity at 1 µM: 58.8%
[2]
  viability at 1 µM: 40.3%
[3]
  pENSA (%) Immunofluor ecense (1 µM): 68.6%
[4]
  viability at 1 µM: 51.5%

## O=C(c1ccccc1)N1CC2CC1CN2c1nc(Nc2cc(C3CC3)[nH]n2)c2ccccc2n1 (stereo not drawn) [compound 15e, (5-(4-((5-cyclopropyl-1G-pyrazol-3-yl)amino)quinazolin-2-yl)-2,5-diazabicyclo[2.2.1]heptan-2-yl)(phenyl)methanone]
[1]; compound 1 µM
  activity at 1 µM: 80%
[2]
  viability at 1 µM: 31.3%
[3]
  pENSA (%) Immunofluor ecense (1 µM): 48.2%
[4]
  viability at 1 µM: 68.3%

## CC(C)CN1CC2CC1CN2c1nc(Nc2cc(C3CC3)[nH]n2)c2ccccc2n1 (stereo not drawn) [compound 15f, M-(5-cyclopropyl-1G-pyrazol-3-yl)-2-(5-isobutyl-2,5-diazabicyclo[2.2.1]heptan-2-yl)quinazolin-4-amine]
[1]; compound 1 µM
  activity at 1 µM: 65.7%
[2]
  viability at 1 µM: 90.1%
[3]
  pENSA (%) Immunofluor ecense (1 µM): 65.3%
[4]
  viability at 1 µM: 71.7%

## c1ccc(CN2CC3CC2CN3c2nc(Nc3cc(C4CC4)[nH]n3)c3ccccc3n2)cc1 (stereo not drawn) [compound 15g, 2-(5-benzyl-2,5-diazabicyclo[2.2.1]heptan-2-yl)-M-(5-cyclopropyl-1G-pyrazol-3-yl)quinazolin-4-amine]
[1]
  IC50: 225 nM
[1]; compound 1 µM
  activity at 1 µM: 27.9%
[2]
  viability at 1 µM: 42.9%
[3]
  pENSA (%) Immunofluor ecense (1 µM): 65.6%
[4]
  viability at 1 µM: 54.4%

## O=S(=O)(c1cccc(Cl)c1)N1CC2CC1CN2c1nc(Nc2cc(C3CC3)[nH]n2)c2ccccc2n1 (stereo not drawn) [compound 15q, 2-(5-((3-chlorophenyl)sulfonyl)-2,5-diazabicyclo[2.2.1]heptan-2-yl)-M-(5-cyclopropyl-1G-pyrazol-3-yl)quinazolin-4-amine]
[1]
  IC50: 545 nM
[1]; compound 1 µM
  activity at 1 µM: 49.2%
[2]
  viability at 1.1 µM: 108%
[3]
  pENSA (%) Immunofluor ecense (1 µM): 62.5%
[4]; read-out: Cell viability (%) WST-8, MCF7, footnote d: concentration 1.1 µM, 72 hours
  viability at 1.1 µM: 106%

## O=S(=O)(c1cccc(C(F)(F)F)c1)N1CC2CC1CN2c1nc(Nc2cc(C3CC3)[nH]n2)c2ccccc2n1 (stereo not drawn) [compound 15u, M-(5-cyclopropyl-1G-pyrazol-3-yl)-2-(5-((3-(trifluoromethyl)phenyl)sulfonyl)-2,5-diazabicyclo[2.2.1]heptan-2-yl)quinazolin-4-amine]
[1]
  IC50: 269 nM
[1]; compound 1 µM
  activity at 1 µM: 48.3%
[2]
  viability at 1 µM: 121%
[3]
  pENSA (%) Immunofluor ecense (1 µM): 100%
[4]
  viability at 1 µM: 107%

## Cc1ccc(S(=O)(=O)N2CC3CC2CN3c2nc(Nc3cc(C4CC4)[nH]n3)c3ccccc3n2)cc1F (stereo not drawn) [compound 15w, M-(5-cyclopropyl-1G-pyrazol-3-yl)-2-(5-((3-fluoro-4-methylphenyl)sulfonyl)-2,5-diazabicyclo[2.2.1]heptan-2-yl)quinazolin-4-amine]
[1]; compound 1 µM
  activity at 1 µM: 64.1%
[2]
  viability at 1 µM: 107%
[3]
  pENSA (%) Immunofluor ecense (1 µM): 86.2%
[4]
  viability at 1 µM: 93.5%

## CCCc1ccc(S(=O)(=O)N2CC3CC2CN3c2nc(Nc3cc(C4CC4)[nH]n3)c3ccccc3n2)cc1 (stereo not drawn) [compound 15x, M-(5-cyclopropyl-1G-pyrazol-3-yl)-2-(5-((4-propylphenyl)sulfonyl)-2,5-diazabicyclo[2.2.1]heptan-2-yl)quinazolin-4-amine]
[1]; compound 1 µM
  activity at 1 µM: 68.4%
[2]
  viability at 1 µM: 98.3%
[3]
  pENSA (%) Immunofluor ecense (1 µM): 94.0%
[4]
  viability at 1 µM: 122%

## O=S(=O)(c1cccc2cccnc12)N1CC2CC1CN2c1nc(Nc2cc(C3CC3)[nH]n2)c2ccccc2n1 (stereo not drawn) [compound 15z, M-(5-cyclopropyl-1G-pyrazol-3-yl)-2-(5-(quinolin-8-ylsulfonyl)-2,5-diazabicyclo[2.2.1]heptan-2-yl)quinazolin-4-amine]
[1]; compound 1 µM
  activity at 1 µM: 105%
[2]
  viability at 1 µM: 111%
[3]
  pENSA (%) Immunofluor ecense (1 µM): 102%
[4]
  viability at 1 µM: 110%

## O=S(=O)(c1ccc(F)cc1F)N1CC2CCC1CN2c1nc(Nc2cc(C3CC3)[nH]n2)c2ccccc2n1 (stereo not drawn) [compound 24c, M-(5-cyclopropyl-1G-pyrazol-3-yl)-2-(5-((2,4-difluorophenyl)sulfonyl)-2,5-diazabicyclo[2.2.2]octan-2-yl)quinazolin-4-amine]
[1]; compound 1 µM
  activity at 1 µM: 16.6%
[2]
  viability at 1 µM: 10.8%
[3]
  pENSA (%) Immunofluor ecense (1 µM): 24.3%
[4]
  viability at 1 µM: 68.3%

## CN(C)S(=O)(=O)c1ccc(Nc2nc(Nc3ccc(CC#N)cc3)nc3ccccc23)cc1 [compound 25a, 4-((2-((4-(cyanomethyl)phenyl)amino)quinazolin-4-yl)amino)-M,M-dimethylbenzenesulfonamide]
[1]; compound 1 µM
  activity at 1 µM: 114%
[2]
  viability at 1 µM: 71.6%
[3]
  pENSA (%) Immunofluor ecense (1 µM): 91.2%
[4]
  viability at 1 µM: 105%

## CN(C)S(=O)(=O)c1ccc(Nc2nc(Nc3ccc(C#N)cc3)nc3ccccc23)cc1 [compound 25b, 4-((2-((4-cyanophenyl)amino)quinazolin-4-yl)amino)-M,M-dimethylbenzenesulfonamide]
[1]; compound 1 µM
  activity at 1 µM: 91.6%
[2]
  viability at 1 µM: 58.1%
[3]
  pENSA (%) Immunofluor ecense (1 µM): 102%
[4]
  viability at 1 µM: 86.4%

## CN(C)S(=O)(=O)c1ccc(Nc2nc(Nc3ccc(C(F)(F)F)cc3)nc3ccccc23)cc1 [compound 25c, M,M-dimethyl-4-((2-((4-(trifluoromethyl)phenyl)amino)quinazolin-4-yl)amino)benzenesulfonamide]
[1]
  activity at 1 µM: 108%
[2]
  viability at 1 µM: 90%
[3]
  pENSA (%) Immunofluor ecense (1 µM): 96.5%
[4]
  viability at 1 µM: 86.4%

Reference: EP4786466A1, “QUINAZOLINE DERIVATIVE, SALT THEREOF, AND PHARMACEUTICAL COMPOSITION COMPRISING SAME AS ACTIVE INGREDIENT” (Korea Research Institute of Chemical Technology, priority 2023, dated 2025)
